Tested on: gut microbiota
Experiment: Gut microbiome analysis (16S rRNA sequencing of fecal samples) in STAM model of NASH
Format: in vivo, C57BL/6J mice
Source text: The study is reported in accordance with Animal Research: Reporting of In Vivo Experiments (ARRIVE) guidelines. C57BL/6J mice were obtained from Japan SLC, Inc. (Japan). All animals used in this study were cared for under the following guidelines: Act on Welfare and Management of Animals (Ministry of the Environment, Japan, Act No. 105 of Oct. 1, 1973), standards relating to the care and management of laboratory animals and relief of pain (Notice No. 88 of the Ministry of the Environment, Japan, Apr. 28, 2006) and the guidelines for proper conduct of animal experiments (Science Council of Japan, Jun. 1, 2006). Protocol approvals were obtained from SMC Laboratories, Japan's IACUC (Study reference no: […] Mice were maintained in a specific pathogen-free (SPF) facility under controlled conditions of temperature (23±3° C.), humidity (50±20%), lighting (12-hour artificial light and dark cycles; light from 8:00 to 20:00) and air exchange. The STAM model of NASH was induced as previously described [D10]. Mice were given a single subcutaneous injection of 200 μg streptozotocin (STZ, Sigma-Aldrich, USA) solution 2 days after birth and fed with a high-fat diet (HFD, 57 kcal % fat, Cat #HFD32, CLEA Japan, Inc., Japan) from 4-9 weeks of age. All mice develop liver steatosis and diabetes and at […] mice had established steatohepatitis, histologically. Studygroups: There were five study groups, described below. Eight mice were included in each study group. Eight NASH mice were orally administered vehicle supplemented with AFO-202 Beta Glucan at a dose of 1 mg/kg in a volume of 5 mL/kg once daily from 6 to 9 weeks of age. Eight NASH mice were orally administered vehicle supplemented with Telmisartan at a dose of 10 mg/kg once daily from 6 to 9 weeks of age. Frequency: Fecal samples were collected at the 6 weeks of age (before administration) and 9 weeks of age (before sacrifice). Procedure: At 6 weeks of age, fecal samples were collected from each mouse by clean catch method. […] A sterile petri dish was placed on the bench. Gently massage the abdomen, position the bottom of mouse over a fresh petri dish, and collect 1-2 fecal pellets. At sacrifice, fecal samples were aseptically collected from cecum. The tubes with feces were placed on ice immediately. These tubes were snap frozen in liquid nitrogen and stored at -80° C. for shipping. In this analysis, the 16S rRNA sequence data acquired by the next-generation sequencer from the fecal […] was used to perform community analysis using the QIIME2 program for microbial community analysis. The raw read data in FASTQ format output from the next-generation sequencer was trimmed to remove adapter sequences and low QV regions that may be included in the data. Cutadapt was used to remove adapter sequences from DNA sequencing reads. Trimmomatic was used as read trimming tool for Illumina NGS data. The adapter sequence was trimmed using the adapter trimming program “cutadapt” if the Trimming of the region at the end of the read sequence overlapped the corresponding sequence by at least one base (mismatch tolerance: 20%). When reads containing N were present in at least one of Read1 and Read2, both Read1 and Read2 were removed. Trimming of low QV regions was performed on the read data after processing using the QV trimming program “Trimmomatic” under the following conditions. The window of 20 bases is slid from the 5' side, and the area where the average QV is less than 20 is trimmed. After trimming, only the reads with more than 50 bases remaining in both Read1 and Read2 were taken as output. The microbial community analysis based on 16S rRNA sequence was performed on the sequence data trimmed in the previous section using the microbial community analysis program “QIIME2”. The annotation program “sklearn” included in QIIME2 is used to annotate the ASV (OTU) sequences. […]

CCCc1nc2c(C)cc(-c3nc4ccccc4n3C)cc2n1Cc1ccc(-c2ccccc2C(=O)O)cc1 [Telmisartan]
Abundance: Family Erysipelotrichaceae, Genus —, Species — (post-intervention, table row r426): 0
Abundance: Family Deferribacteraceae, Genus Mucispirillum, Species schaedleri (post-intervention, table row r427): 0
Abundance: Family Methylobacteriaceae, Genus Methylobacterium, Species Other (post-intervention, table row r428): 0
Abundance: Family Methanobacteriaceae, Genus Methanobrevibacter, Species — (post-intervention, table row r429): 0
Abundance: Family Lachnospiraceae, Genus Other, Species Other (post-intervention, table row r431): 0
Abundance: Family Lachnospiraceae, Genus Dorea, Species — (post-intervention, table row r432): 0
Abundance: Family Lachnospiraceae, Genus Dorea, Species — (post-intervention, table row r433): 0
Abundance: Family Lachnospiraceae, Genus —, Species — (post-intervention, table row r434): 0
Abundance: Family Erysipelotrichaceae, Genus —, Species — (post-intervention, table row r435): 0
Abundance: Family Other, Genus Other, Species Other (post-intervention, table row r437): 0
Abundance: Family Ruminococcaceae, Genus Ruminococcus, Species — (post-intervention, table row r438): 11
Abundance: Family Lachnospiraceae, Genus Other, Species Other (post-intervention, table row r439): 0
Abundance: Family Erysipelotrichaceae, Genus Clostridum, Species cocleatum (post-intervention, table row r440): 0
Abundance: Family Clostridiaceae, Genus —, Species — (post-intervention, table row r441): 0
Abundance: Family S24-7, Genus —, Species — (post-intervention, table row r442): 0
Abundance: Family Ruminococcaceae, Genus Oscillospira, Species — (post-intervention, table row r443): 10
Abundance: Family Erysipelotrichaceae, Genus —, Species — (post-intervention, table row r446): 9
Abundance: Family Streptococcaceae, Genus —, Species — (post-intervention, table row r447): 0
Abundance: Family Erysipelotrichaceae, Genus —, Species — (post-intervention, table row r448): 0
Abundance: Family Turicibacteraceae, Genus Turicibacter, Species — (post-intervention, table row r449): 0
Abundance: Family S24-7, Genus —, Species — (post-intervention, table row r450): 0
Abundance: Family Ruminococcaceae, Genus Oscillospira, Species — (post-intervention, table row r451): 0
Abundance: Family Lachnospiraceae, Genus —, Species — (post-intervention, table row r452): 0
Abundance: Family Erysipelotrichaceae, Genus —, Species — (post-intervention, table row r454): 0
Abundance: Family Ruminococcaceae, Genus Ruminococcus, Species — (post-intervention, table row r455): 7
Abundance: Family Moraxellaceae, Genus Psychrobacter, Species Other (post-intervention, table row r456): 0
Abundance: Family Paenibacillaceae, Genus Other, Species Other (post-intervention, table row r457): 0
Abundance: Family Lachnospiraceae, Genus Coprococcus, Species — (post-intervention, table row r458): 0
Abundance: Family Bacillaceae, Genus Bacillus, Species — (post-intervention, table row r459): 0
Abundance: Family Enterococcaceae, Genus Vagococcus, Species — (post-intervention, table row r460): 0
Abundance: Family Lachnospiraceae, Genus —, Species — (post-intervention, table row r462): 0
Abundance: Family Ruminococcaceae, Genus Oscillospira, Species — (post-intervention, table row r466): 0
Abundance: Family Erysipelotrichaceae, Genus —, Species — (post-intervention, table row r468): 0
Abundance: Family Other, Genus Other, Species Other (post-intervention, table row r469): 4
Abundance: Family Clostridiaceae, Genus Clostridium, Species Other (post-intervention, table row r470): 0
Abundance: Family Ruminococcaceae, Genus —, Species — (post-intervention, table row r473): 0
Abundance: Family Deferribacteraceae, Genus Mucispirillum, Species schaedleri (post-intervention, table row r474): 0
Abundance: Family Turicibacteraceae, Genus Turicibacter, Species — (post-intervention, table row r475): 0
Abundance: Family [Mogibacteriaceae], Genus —, Species — (post-intervention, table row r478): 0
Abundance: Family Lachnospiraceae, Genus Dorea, Species longicateria (post-intervention, table row r480): 0
Abundance: Family Ruminococcaceae, Genus —, Species — (post-intervention, table row r481): 0
Abundance: Family Lachnospiraceae, Genus —, Species — (post-intervention, table row r482): 0
Abundance Erysipelotrichaceae/Allobaculum/— (post, line r8): 622
Abundance Turicibacteraceae/Turicibacter/— (post, line r9): 786
Abundance Desulfovibrionaceae/—/— (post, line r10): 6012
Abundance Clostridiaceae/Other/Other (post, line r11): 723
Abundance Lactobacillaceae/Lactobacillus/— (post, line r12): 254
Abundance Streptococcaceae/Lactococeus/— (post, line r13): 1948
Abundance Bacteroidaceae/Bacteroides/— (post, line r14): 8412
Abundance [Paraprevotellaceae]/[Prevotella]/— (post, line r15): 7582
Abundance —/—/— (post, line r16): 6029
Abundance Deferribacteraceae/Mucispirillum/schaedleri (post, line r17): 1921
Abundance Bacteroidaceae/Bacteroides/acidifaciens (post, line r18): 2571
Abundance —/—/— (post, line r19): 2764
Abundance Verrucomicrobiaceae/Akkermansia/muciniphila (post, line r20): 320
Abundance Enterobacteriaceae/Other/Other (post, line r22): 40
Abundance Lactobacillaceae/Lactobacillus/— (post, line r23): 513
Abundance S24-7/—/— (post, line r24): 411
Abundance Lachnospiraceae/—/— (post, line r25): 1545
Abundance Peptostreptocpccaceae/—/— (post, line r26): 181
Abundance Lachnospiraceae/[Ruminococcus]/gnavus (post, line r27): 898
Abundance Lachnospiraceae/Coprococeus/— (post, line r28): 1468
Abundance Bifidobacteriaceae/Bifidobacterium/pseudolongum (post, line r29): 111
Abundance Enterobacteriaceae/Proteus/— (post, line r30): 1153
Abundance Lactobacillaceae/Lactobacillus/Other (post, line r31): 111
Abundance S24-7/—/— (post, line r32): 329
Abundance Porphyromonadaceae/Parabacteroides/distasonis (post, line r33): 1437
Abundance Clostridiaceae/—/— (post, line r34): 79
Abundance —/—/— (post, line r35): 536
Abundance Desulfovibrionaceae/Desulfovibrio/— (post, line r36): 503
Abundance S24-7/—/— (post, line r37): 271
Abundance Coriobacteriaceae/Adlercreutzia/— (post, line r38): 135
Abundance S24-7/—/— (post, line r39): 527
Abundance Erysipelotrichaceae/Clostridium/cocleatum (post, line r40): 696
Abundance Ruminococcaceae/Ruminococcus/— (post, line r41): 266
Abundance Lachnospiraceae/Other/Other (post, line r43): 436
Abundance Lachnospiraceae/[Ruminococcus]/gnavus (post, line r44): 87
Abundance Turicibacteraceae/Turicibacter/— (post, line r45): 0
Abundance Lachnospiraceae/—/— (post, line r46): 253
Abundance Bacteroidaceae/Bacteroides/— (post, line r47): 2042
Abundance Ruminococcaceae/Oscillospira/— (post, line r48): 621
Abundance Clostridiaceae/Other/Other (post, line r49): 70
Abundance Lachnospiraceae/Roseburia/— (post, line r50): 927
Abundance Lachnospiraceae/—/— (post, line r51): 698
Abundance S24-7/—/— (post, line r52): 104
Abundance Lachnospiraceae/[Ruminococcus]/gnavus (post, line r53): 126
Abundance Lachnospiraceae/Coprococcus/— (post, line r56): 562
Abundance S24-7/—/— (post, line r57): 144
Abundance S24-7/—/— (post, line r58): 410
Abundance Lachnospiraceae/Other/Other (post, line r60): 245
Abundance Lachnospiraceae/[Ruminococcus]/gnavus (post, line r61): 686
Abundance Erysipelotrichaceae/Allobaculum/— (post, line r62): 0
Abundance Desulfovibrionaceae/Desulfovibrio/C21_c20 (post, line r63): 43
Abundance S24-7/—/— (post, line r64): 152
Abundance Streptococcaceae/Lactococcus/garvieae (post, line r66): 8
Abundance Enterobacteriaceae/Proteus/— (post, line r68): 386
Abundance Lachnospiraceae/—/— (post, line r69): 786
Abundance S24-7/—/— (post, line r70): 74
Abundance Lachnospiraceae/[Ruminococcus]/gnavus (post, line r71): 331
Abundance Clostridiaceae/Clostridium/Other (post, line r73): 0
Abundance Lachnospiraceae/—/— (post, line r74): 15
Abundance Clostridiaceae/Other/Other (post, line r75): 49
Abundance S24-7/—/— (post, line r78): 101

Reference: patent US20240374631A1, “A COMPOSITION FOR IMPROVING GUT MICROBIOTA, BEHAVIOURAL PATTERN, ALPHA-SYNUCLEIN LEVELS, SLEEP PATTERN AND/OR SERUM MELATONIN” (GN Corporation Co Ltd, priority 2021, published 2024)
